This passage reports log virus titer change results from PubChem BioAssay AID651886 (Southern Research Specialized Biocontainment Screening …, 2012).

Active and inactive are the calls of the source. How the calls were made is not given here. Bounds are passed on as bounds.

The test system of this experiment is VEEV TC-83 infected cells, virus titer reduction. Briefly: VEEV TC 83 virus titer reduction, infected cells, secondary screen, 5 µm (AID 651886). As to conditions: at 5 µM; active compounds read low.
With `CCN1CCN(C)CC1=Nc1ccc([N+](=O)[O-])cc1C(=O)Nc1ccccc1`, the log virus titer change is under -7.2.

As to `O=c1c2cc([N+](=O)[O-])ccc2nc(CN2CCNCC2)n1-c1ccccc1`, the log virus titer change was under -7.76.

In the case of `CCN1CCN(Cc2nc3ccc(I)cc3c(=O)n2-c2ccccc2)CC1`, the log virus titer change was -0.33 (inactive).

With `COc1ccc(NC(=O)c2cc([N+](=O)[O-])ccc2N=C2CN(C)CCN2C)cc1`, the log virus titer change is under -7.2.

As to `CN1CCN(C)C(=Nc2ccc([N+](=O)[O-])cc2C(=O)Nc2ccccc2)C1`, the log virus titer change is under -7.2.

As to `CN1CCN(C)C(=Nc2ccc(C#N)cc2C(=O)Nc2cccc(F)c2)C1`, the log virus titer change was -1.43.

As for `CCN1CCN(Cc2nc3ccc([N+](=O)[O-])cc3c(=O)n2-c2ccccc2)CC1`, the log virus titer change was under -7.54.

For the molecule `CCN1CCN(Cc2nc3ccc([N+](=O)[O-])cc3c(=O)n2-c2ccccc2F)CC1`, the log virus titer change is -2.06.

With `CN1CCN(Cc2nc3ccc([N+](=O)[O-])cc3c(=O)n2-c2ccccc2F)CC1`, the log virus titer change is under -7.76.

Turning to `CCN1CCN(Cc2nc3ccc(C#N)cc3c(=O)n2-c2ccccc2)CC1`, the log virus titer change is -1.65.

Consider `O=c1c2cc([N+](=O)[O-])ccc2nc(CN2CCCCC2)n1-c1ccccc1F`, for which the log virus titer change was -0.366 (inactive).

In the case of `CN1CCN(C)C(=Nc2ccc(C#N)cc2C(=O)Nc2ccccc2)C1`, the log virus titer change is -5.82.

On to `O=c1c2cc([N+](=O)[O-])ccc2nc(CN2CCNCC2)n1-c1ccccc1F`, for which the log virus titer change was under -7.76.

Take `CN1CCN(C)C(=Nc2ccc([N+](=O)[O-])cc2C(=O)Nc2ccccc2F)C1`: the log virus titer change is -3.8.

As to `CCN1CCN(Cc2nc3ccc([N+](=O)[O-])cc3c(=O)n2-c2ccc(F)cc2)CC1`, the log virus titer change was -5.88.

For the molecule `CCN1CCN(Cc2nc3ccc([N+](=O)[O-])cc3c(=O)n2-c2cccc(F)c2)CC1`, the log virus titer change is -7.11.
